“Also recorded” adds a separate entry of the source. No end group written: not given here.

This passage reports GPC3-specific cytotoxic activity results from US8535942B2, “Glypican-3 (GPC3)-derived tumor rejection antigenic peptides useful for HLA-A2-positive patients and pharmaceutical comprising the same” (Oncotherapy Science, Inc., priority 2005, dated 2013).

The subject of this data set is SK-Hep-1/GPC3 cells. Put plainly: Cytotoxicity test of peptide-induced killer T cells (calcein AM, Terascan VP). Particulars: killer T cells induced with peptide-loaded dendritic cells; targets SK-Hep-1/GPC3 vs SK-Hep-1; E/T ratio 20:1. Type of data set: cell-based, human. As to the method:
Informed consent was obtained from HLA-A2-positive hepatocellular carcinoma patients, who were in therapy at Gastroenterological Surgery, Kumamoto University School of Medicine, and at Hospital East, the National Cancer Center. Thereafter, 30 ml of blood sample was obtained from individual patients, and peripheral blood mononuclear cells were then isolated using Ficoll-Conray density-gradient centrifugation method according to the previously reported method (Nakatsura, T et al., Eur. J. Immunol. 32, 826-836 (2002)).
From the isolated peripheral blood mononuclear cells, killer T cells were induced by the previously reported method (Monji, M et al., Clin Cancer Res 10, 6047-6057, 2004). First, CD8-positive cells and CD14-positive cells were separated from the peripheral blood mononuclear cells using MACS. The CD14-positive cells were cultured in the presence of GM-CSF (100 ng/ml) and IL-4 (20 ng/ml) for 5 days, so that differentiation of dendritic cells was induced. Thereafter, TNF-α (20 ng/ml) was added thereto for maturation. On the 7th day, each GPC3 peptide (10 μM) was added thereto, and co-culture with CD8-positive cells was then carried out. This antigen stimulation with autologous CD14-positive cell-derived dendritic cells was repeated 3 or 4 times every week, so that peptide-specific killer T cells were induced. During the induction, half a medium was exchanged with a fresh one every two days, and IL-2 was added thereto in a concentration of 10 U/ml.
The cytotoxic activity of killer T cells was evaluated by a cytotoxic test using Terascan VP. First, target cells were fluorescently labeled with a calcein AM staining solution at 37° C. for 30 minutes. Such cells were co-cultured with killer T cells on a Coster 96-well half area plate, and fluorescently labeled cells were then detected over time, thereby measuring the degree of cytotoxicity. The analysis was carried out using cytotoxicity test computing software CalCT-961 of MINERVA TECH, which was used in a fluorescence method. An experiment was carried out at an E/T ratio of 20:1. […]

Regarding FVGEFFTDV [GPC3 144-152, FVGEFFTDV], the GPC3-specific cytotoxic activity result is recorded as “confirmed; also recorded: exhibited strong cytotoxic activity”. Regarding RLQPGLKWV [GPC3 44-52, RLQPGLKWV], the GPC3-specific cytotoxic activity result is “confirmed; also recorded: exhibited strong cytotoxic activity”. In the case of YILGSDINV [GPC3 155-163, YILGSDINV], the GPC3-specific cytotoxic activity entry is given as “confirmed; also recorded: exhibited strong cytotoxic activity”.
